# Values of other authors as cited in patent US20080138383A1, “COMPOSITIONS AND METHODS FOR TREATING SEIZURES” (priority 2006, published 2008).
# Read-outs that look alike come from different tables or passages of the source.
# Experiments:
# [1] = in vivo
smiles,measurement,setting,value
O=C1CN=C(c2ccccc2)c2cc(Cl)ccc2N1 [desmethyldiazepam],activity relative to the parent drug,main active metabolite versus diazepam,somewhat less active than the parent drug
O=C1Nc2ccc(Cl)cc2C(c2ccccc2Cl)=NC1O (centres unmarked) [lorazepam],onset of action,after intramuscular administration,up to 1 hour
same,onset of action,after intravenous administration,several minutes
same,dose equivalent to 5 mg of diazepam,estimates,approximately 0.5 mg
Cc1ncc2n1-c1ccc(Cl)cc1C(c1ccccc1F)=NC2 [midazolam],elimination half-life,[1],1.5 to 3.5 h
